Results reported in patent publication US20240269139A1, “COMPOUNDS FOR TARGETED PROTEIN DEGRADATION OF KINASES” (DANA-FARBER CANCER INSTITUTE, INC., priority 2020, published 2024).
Values joined by “and” are separate entries in the source; they are usually repeats but may differ in a detail not shown here. Equal values may be shown once. Read-outs that look alike come from different tables or passages of the source.

How the values were obtained:
Type in all cases: cell-based
[1] = molecular target: T1, protein kinases (human kinome) (Homo sapiens, UniProt O14965)
T1 sequence (O14965 1-403): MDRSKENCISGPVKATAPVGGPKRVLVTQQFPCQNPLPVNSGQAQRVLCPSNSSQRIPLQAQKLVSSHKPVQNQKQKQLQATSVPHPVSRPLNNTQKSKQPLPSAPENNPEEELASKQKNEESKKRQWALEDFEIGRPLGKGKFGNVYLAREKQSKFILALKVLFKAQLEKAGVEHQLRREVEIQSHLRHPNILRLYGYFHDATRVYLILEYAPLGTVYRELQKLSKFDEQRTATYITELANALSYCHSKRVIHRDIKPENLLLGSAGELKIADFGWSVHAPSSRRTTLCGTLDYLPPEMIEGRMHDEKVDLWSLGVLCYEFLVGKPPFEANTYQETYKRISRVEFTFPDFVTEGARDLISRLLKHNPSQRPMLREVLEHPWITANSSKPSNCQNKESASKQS

[2] = molecular target: protein kinases (human kinome) (Homo sapiens, UniProt P16591); settings: for logFC of FER (P16591-1): down
[3] = molecular target: protein kinases (human kinome) (Homo sapiens, UniProt P51451); settings: for logFC BLK: BLK (P51451), direction down; for logFC of BLK (P51451): down
[4] = molecular target: protein kinases (human kinome) (Homo sapiens, UniProt P53671); settings: for logFC LIMK2: LIMK2 (P53671), down; for logFC of LIMK2: LIMK2 P53671
[5] = tested on: protein kinases (human kinome); settings: for logFC of SRC: Accession P12931-2; for logFC of FER: FER P16591-3; for logFC LCK: accession P06239-3; for logFC PTK2B: accession Q14289-2
[6] = Experiment wp107, direction down
[7] = Experiment wp117, direction down
[8] = experiment wp045, direction of change down
[9] = experiment wp103, direction of change down
[10] = experiment wp107, direction of change down
[11] = experiment wp117, direction of change down

protein kinases (human kinome) (Homo sapiens, UniProt P16591), sequence (P16591 whole entry): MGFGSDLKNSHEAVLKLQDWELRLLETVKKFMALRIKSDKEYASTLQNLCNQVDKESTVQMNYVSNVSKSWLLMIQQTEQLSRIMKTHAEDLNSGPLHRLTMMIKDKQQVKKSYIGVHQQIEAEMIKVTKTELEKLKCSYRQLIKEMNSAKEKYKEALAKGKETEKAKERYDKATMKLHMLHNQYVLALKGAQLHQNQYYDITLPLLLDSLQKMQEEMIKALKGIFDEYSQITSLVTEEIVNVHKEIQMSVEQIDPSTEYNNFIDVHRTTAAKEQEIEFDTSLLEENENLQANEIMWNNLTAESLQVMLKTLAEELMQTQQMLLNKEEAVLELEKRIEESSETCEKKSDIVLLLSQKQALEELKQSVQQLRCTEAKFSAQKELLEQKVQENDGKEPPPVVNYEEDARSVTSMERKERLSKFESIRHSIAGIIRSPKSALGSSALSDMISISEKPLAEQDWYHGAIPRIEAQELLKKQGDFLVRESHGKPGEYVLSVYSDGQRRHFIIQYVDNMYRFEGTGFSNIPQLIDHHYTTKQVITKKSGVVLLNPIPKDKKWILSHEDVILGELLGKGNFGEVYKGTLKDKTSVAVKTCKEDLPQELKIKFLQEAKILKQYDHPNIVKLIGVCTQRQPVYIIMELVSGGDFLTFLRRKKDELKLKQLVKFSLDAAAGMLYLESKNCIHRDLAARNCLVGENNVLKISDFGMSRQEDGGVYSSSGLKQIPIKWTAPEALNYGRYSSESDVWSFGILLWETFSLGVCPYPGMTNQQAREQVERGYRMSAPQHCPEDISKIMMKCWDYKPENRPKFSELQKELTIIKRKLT
protein kinases (human kinome) (Homo sapiens, UniProt P51451), sequence (P51451 whole entry): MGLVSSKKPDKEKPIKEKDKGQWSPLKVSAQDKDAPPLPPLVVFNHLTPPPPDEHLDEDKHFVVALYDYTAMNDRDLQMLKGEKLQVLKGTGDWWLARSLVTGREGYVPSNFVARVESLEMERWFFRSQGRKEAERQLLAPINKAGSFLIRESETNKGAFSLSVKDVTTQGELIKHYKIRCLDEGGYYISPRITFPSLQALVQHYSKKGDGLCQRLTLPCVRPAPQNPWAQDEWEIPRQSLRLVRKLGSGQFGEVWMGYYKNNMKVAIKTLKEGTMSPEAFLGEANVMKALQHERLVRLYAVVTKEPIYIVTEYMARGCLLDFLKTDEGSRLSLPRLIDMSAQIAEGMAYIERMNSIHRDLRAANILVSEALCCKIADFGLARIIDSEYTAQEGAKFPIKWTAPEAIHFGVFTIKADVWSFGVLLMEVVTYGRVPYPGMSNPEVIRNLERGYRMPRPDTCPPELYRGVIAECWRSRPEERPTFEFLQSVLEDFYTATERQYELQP
protein kinases (human kinome) (Homo sapiens, UniProt P53671), sequence (P53671 whole entry): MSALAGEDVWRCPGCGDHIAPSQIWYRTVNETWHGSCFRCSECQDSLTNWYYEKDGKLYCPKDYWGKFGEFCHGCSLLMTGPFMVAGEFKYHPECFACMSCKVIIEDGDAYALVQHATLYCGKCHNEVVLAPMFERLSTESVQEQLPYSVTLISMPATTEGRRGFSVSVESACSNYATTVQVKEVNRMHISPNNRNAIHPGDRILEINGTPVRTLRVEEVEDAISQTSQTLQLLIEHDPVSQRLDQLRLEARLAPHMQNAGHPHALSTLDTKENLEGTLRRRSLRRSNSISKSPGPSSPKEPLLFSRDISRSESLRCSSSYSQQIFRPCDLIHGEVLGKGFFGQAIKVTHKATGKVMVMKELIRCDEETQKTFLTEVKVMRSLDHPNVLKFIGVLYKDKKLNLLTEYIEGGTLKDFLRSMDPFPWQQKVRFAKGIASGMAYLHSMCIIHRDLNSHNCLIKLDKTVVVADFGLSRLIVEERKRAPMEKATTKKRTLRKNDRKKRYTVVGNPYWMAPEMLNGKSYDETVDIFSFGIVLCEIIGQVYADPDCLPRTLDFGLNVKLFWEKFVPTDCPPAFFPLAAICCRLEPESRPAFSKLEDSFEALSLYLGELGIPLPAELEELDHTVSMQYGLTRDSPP

Structure (SMILES): Cc1ccc(NC(=O)c2cccc(C(F)(F)F)c2)cc1N1Cc2cnc(Nc3ccc(N4CCN(Cc5cn(CCCCCOc6cccc7c6C(=O)N(C6CCC(=O)NC6=O)C7=O)nn5)CC4)nc3)nc2N(C)C1=O (stereo not drawn) [DB0646, N-(3-(7-((6-(4-((1-(5-((2-(2,6-Dioxopiperidin-3-yl)-1,3-dioxoisoindolin-4-yl)oxy)pentyl)-1H-1,2,3-triazol-4-yl)methyl)piperazin-1-v)pyridin-3-yl)amino)-1-methyl-2-oxo-1,4-dihydropyrimido[4,5-d]pyrimidin-3(2H)-yl)-4-methylphenyl)-3-(trifluoromethyl)benzamide]
- logFC AURKA (O14965) ([1]; experiment wp045): −0.3242
- logFC AURKA (O14965) ([1]; experiment wp160, 4 hr): −0.4478
- logFC of FER (P16591-1) ([2]; Experiment wp045): −1.712
- logFC of FER (P16591-1) ([2]; Experiment wp103): −1.628
- logFC of FER (P16591-1) ([2]; Experiment wp105): −0.8737
- logFC of FER (P16591-1) ([2]; Experiment wp107): −1.722
- logFC of FER (P16591-1) ([2]; Experiment wp117): −1.753
- logFC of FER (P16591-1) ([2]; Experiment wp160, 2 hr): −0.5384
- logFC of FER (P16591-1) ([2]; Experiment wp160, 4 hr): −1.454
- logFC of FER (P16591-1) ([2]; Experiment wp160, 8 hr): −1.737
- logFC of FER ([2]; FER P16591-1, experiment wp045): −1.712
- logFC of FER ([2]; FER P16591-1, experiment wp103): −1.628
- logFC of FER ([2]; FER P16591-1, experiment wp105): −0.8737
- logFC of FER ([2]; FER P16591-1, experiment wp107): −1.722
- logFC of FER ([2]; FER P16591-1, experiment wp117): −1.753
- logFC of FER ([2]; FER P16591-1, experiment wp160, 2 hr): −0.5384
- logFC of FER ([2]; FER P16591-1, experiment wp160, 4 hr): −1.454
- logFC of FER ([2]; FER P16591-1, experiment wp160, 8 hr): −1.737
- logFC of FER ([2]; FER P16591, experiment wp152): −1.698
- logFC of FER (P16591) ([2]; experiment wp152): −1.698
- logFC BLK ([3]; experiment wp103): −1.19
- logFC BLK ([3]; experiment wp107): −1.259
- logFC BLK ([3]; experiment wp117): −1.275
- logFC BLK ([3]; experiment wp152): −1.511
- logFC BLK ([3]; experiment wp160, 2 hr): −0.5315
- logFC BLK ([3]; experiment wp160, 4 hr): −1.092
- logFC BLK ([3]; experiment wp160, 8 hr): −1.434
- logFC of BLK ([3]; BLK P51451, experiment wp045): −1.314
- logFC of BLK (P51451) ([3]; Experiment wp045): −1.314
- logFC of BLK (P51451) ([3]; Experiment wp103): −1.19
- logFC of BLK (P51451) ([3]; Experiment wp107): −1.259
- logFC of BLK (P51451) ([3]; Experiment wp117): −1.275
- logFC of BLK (P51451) ([3]; Experiment wp152): −1.511
- logFC of BLK (P51451) ([3]; Experiment wp160, 2 hr): −0.5315
- logFC of BLK (P51451) ([3]; Experiment wp160, 4 hr): −1.092
- logFC of BLK (P51451) ([3]; Experiment wp160, 8 hr): −1.434
- logFC LIMK2 ([4]; experiment wp045): −1.648
- logFC LIMK2 ([4]; experiment wp103): −1.569
- logFC LIMK2 ([4]; experiment wp107): −1.738
- logFC LIMK2 ([4]; experiment wp117): −1.565
- logFC LIMK2 ([4]; experiment wp152): −1.565
- logFC LIMK2 ([4]; experiment wp172): −1.095
- logFC of LIMK2 ([4]; experiment wp045): −1.648
- logFC of LIMK2 ([4]; experiment wp103): −1.569
- logFC of LIMK2 ([4]; experiment wp107): −1.738
- logFC of LIMK2 ([4]; experiment wp117): −1.565
- logFC of LIMK2 ([4]; experiment wp152): −1.565
- logFC of LIMK2 ([4]; experiment wp172): −1.095
- logFC FYN ([5]; Accession P06241-2, experiment wp107): −0.3999
- logFC FYN ([5]; Accession P06241-2, experiment wp160, 4 hr): −0.3922
- logFC of SRC ([5]; experiment wp045): −0.4152
- logFC of SRC ([5]; experiment wp105): −0.4412
- logFC of SRC ([5]; experiment wp107): −0.4274
- logFC of SRC ([5]; experiment wp117): −0.3839
- logFC ([5]; CDK11B P21127-3, experiment wp103): −0.3334
- logFC MAP3K20 (Q9NYL2-2) ([5]; Experiment wp045): −1.182
- logFC MAPK8 (P45983-4) ([5]; Experiment wp045, direction down): −0.9774
- logFC MAP3K20 (Q9NYL2-2) ([5]; Experiment wp103): −0.7004
- logFC of MAPK8 (P45983-2) ([5]; Experiment wp103): −0.6109
- logFC MAPK8 (P45983-2) ([5]; Experiment wp103, direction down): −0.6109
- logFC MAPK8 (P45983-3) ([5]; Experiment wp105, direction down): −0.4094
- logFC MAP3K20 (Q9NYL2-2) ([5]; Experiment wp107): −0.7825
- logFC of MAPK8 (P45983-2) ([5]; Experiment wp107): −0.723
- logFC MAPK8 (P45983-2) [5, 6]: −0.723
- logFC TNK2 (Q07912-3) [5, 6]: −0.8258
- logFC MAP3K20 (Q9NYL2-2) ([5]; Experiment wp114): −0.8962
- logFC MAP3K20 (Q9NYL2-2) ([5]; Experiment wp117): −0.6701
- logFC of MAPK8 (P45983-2) ([5]; Experiment wp117): −0.7835
- logFC MAPK8 (P45983-2) [5, 7]: −0.7835
- logFC TNK2 (Q07912-3) [5, 7]: −0.9833
- logFC MAPK8 (P45983-3) ([5]; Experiment wp160, 4 hr, direction down): −0.611
- logFC MAPK8 (P45983-3) ([5]; Experiment wp160, 8 hr, direction down): −1.01
- logFC ([5]; FER (P16591-3), experiment wp114, direction down): −0.5921
- logFC ([5]; FER (P16591-3), experiment wp172, direction down): −1.014
- logFC of FER ([5]; experiment wp114): −0.5921
- logFC of FER ([5]; experiment wp172): −1.014
- logFC FYN ([5]; FYN P06241-2, experiment wp107): −0.3999
- logFC FYN ([5]; FYN P06241-2, experiment wp160, 4 hr): −0.3922
- logFC ([5]; GK P32189-3, experiment wp114): −0.3632
- logFC LCK [5, 8]: −0.5631
- logFC LCK [5, 9]: −0.4496
- logFC LCK [5, 10]: −0.3963
- logFC LCK [5, 11]: −0.4202
- logFC ([5]; LIMK2 (P53671-3), experiment wp105, direction down): −0.7299
- logFC of LIMK2 ([5]; LIMK2 P53671-3, experiment wp105): −0.7299
- logFC ([5]; LYN (P07948-2), experiment wp105): −0.985
- logFC MAPK8 ([5]; MAPK8 P45983-4, experiment wp045): −0.9774
- logFC MAPK14 ([5]; MAPK14, accession Q16539-2, experiment wp105, direction of change down): −0.5822
- logFC MAPK14 ([5]; MAPK14, accession Q16539-2, experiment wp117, direction of change down): −0.6436
- logFC MAPK14 ([5]; MAPK14, accession Q16539-2, experiment wp160, 4 hr, direction of change down): −0.7051
- logFC MAPK14 ([5]; MAPK14, accession Q16539-2, experiment wp160, 8 hr, direction of change down): −1.092
- logFC MAPK14 ([5]; MAPK14 Q16539-2, experiment wp105): −0.5822
- logFC MAPK14 ([5]; MAPK14 Q16539-2, experiment wp117): −0.6436
- logFC MAPK14 ([5]; MAPK14 Q16539-2, experiment wp160, 4 hr): −0.7051
- logFC MAPK14 ([5]; MAPK14 Q16539-2, experiment wp160, 8 hr): −1.092
- targets with significantly different degrader efficacy in the different cell lines with no obvious difference in protein expression ([5]; MOLT-4, KELLY, HEK293T): CSK, MAPK9
- logFC ([5]; PTK2B (Q14289-2), experiment wp107, direction down): −2.484
- logFC ([5]; PTK2B (Q14289-2), experiment wp117, direction down): −2.583
- logFC PTK2B [5, 10]: −2.484
- logFC PTK2B [5, 11]: −2.583
- logFC ([5]; SRC (P12931-2) protein abundance, degrader vs DMSO, down): −0.4152 and −0.4412 and −0.4274 and −0.3839
- logFC ([5]; TAOK2 (Q9UL54-2), experiment wp160, 8 hr): −0.5973
- logFC ([5]; TNK2 (Q07912-3), experiment wp107, direction down): −0.8258
- logFC ([5]; TNK2 (Q07912-3), experiment wp117, direction down): −0.9833
- logFC MAP3K20 (Q9NYL2-2) ([5]; experiment wp045): −1.182
- logFC LCK (P06239-3) [5, 8]: −0.5631
- logFC MAP3K20 (Q9NYL2-2) ([5]; experiment wp103): −0.7004
- logFC CDK11B (P21127-3) [5, 9]: −0.3334
- logFC LCK (P06239-3) [5, 9]: −0.4496
- logFC of LYN (P07948-2) ([5]; experiment wp105): −0.985
- logFC of MAPK8 (P45983-3) ([5]; experiment wp105): −0.4094
- logFC MAP3K20 (Q9NYL2-2) ([5]; experiment wp107): −0.7825
- logFC LCK (P06239-3) [5, 10]: −0.3963
- logFC MAP3K20 (Q9NYL2-2) ([5]; experiment wp114): −0.8962
- logFC MAP3K20 (Q9NYL2-2) ([5]; experiment wp117): −0.6701
- logFC LCK (P06239-3) [5, 11]: −0.4202
- logFC of MAPK8 (P45983-3) ([5]; experiment wp160, 4 hr): −0.611
- logFC of MAPK8 (P45983-3) ([5]; experiment wp160, 8 hr): −1.01
- logFC TAOK2 (Q9UL54-2) ([5]; experiment wp160, 8 hr, direction of change down): −0.5973
- Total no. kinase hits ([5]; number of degraded kinases per library compound): 33
